Measured values reported in patent publication US10787444B2, “Compounds for the modulation of myc activity” (Syros Pharmaceuticals, Inc., priority 2015, dated 2020).
Where a name gives a salt, the structure may show the parent alone. Read-outs that look alike come from different tables or passages of the source.

Tests used:
[1] = molecular target: T1, c-Myc/Max/Ebox DNA (Homo sapiens, UniProt P01106); assay: c-Myc/Max/Ebox DNA AlphaScreen Assay; type: binding; details: calculated IC50 class
T1 construct: his6 (cleaved yes)
In short: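 Compounds were preincubated with free c-Myc (20 nM), biotinylated single-Ebox DNA (10 nM) and Ni acceptor beads before his6-Max (5 nM) and streptavidin donor beads were added. Buffer was 50 mM HEPES pH 8.0, 150 mM NaCl, BSA, Tween20, glycogen and DTT, with DMSO ≤2%. After 2 h incubation, AlphaScreen signal was read at 680 nm excitation and 520–620 nm emission.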

[2] = tested on: human small lung cancer cell line H2171; assay: Cell Viability Assay (ATPlite); type: cell-based; details: H2171 cells, three days, ATPlite, calculated IC50 class, read-out: H2171 Activity
In short: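 H2171 cells were plated at 20,000 cells/mL and dosed immediately by pin transfer with a 10-point dose series in DMSO. After three days at 37° C, ATPlite luminescence served as the viability readout.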

[3] = Homo sapiens, NCI-H2171, 72 h, Table 2, compounds of FIG. 1
[4] = Homo sapiens, NCI-H2171, 72 h, Table 3, compounds of FIG. 2
[5] = Table 2, compounds of FIG. 1, listed as 116

T1 sequence (P01106 whole entry): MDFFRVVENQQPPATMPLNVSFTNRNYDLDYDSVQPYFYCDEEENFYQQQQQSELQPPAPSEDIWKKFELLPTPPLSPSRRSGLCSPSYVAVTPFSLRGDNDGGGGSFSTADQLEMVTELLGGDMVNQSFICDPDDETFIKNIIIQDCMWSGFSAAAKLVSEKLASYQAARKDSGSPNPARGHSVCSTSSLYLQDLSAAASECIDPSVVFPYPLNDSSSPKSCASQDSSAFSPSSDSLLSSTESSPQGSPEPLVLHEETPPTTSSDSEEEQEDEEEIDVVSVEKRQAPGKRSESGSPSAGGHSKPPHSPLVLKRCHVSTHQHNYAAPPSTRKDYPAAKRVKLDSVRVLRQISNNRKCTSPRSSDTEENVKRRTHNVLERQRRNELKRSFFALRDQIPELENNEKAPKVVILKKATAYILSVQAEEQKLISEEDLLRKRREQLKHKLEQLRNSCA

SMILES	IC50 ([1]; Table 2, compounds of FIG. 1) [nM]	IC50 [2, 3] [nM]	also measured
CCOC(=O)Cn1cc(-c2ccc3sc(-c4c(NC(=O)CCNCCOC)sc5c4CCNC5)nc3c2)cn1 [compound 445]	< 300	< 300	
CC(=O)Nc1sc2c(c1-c1nc3ccc(C)cc3s1)CCNC2 [Compound 224, N-(3-(6-methylbenzo[d]thiazol-2-yl)-4,5,6,7-tetrahydrothieno[2,3-c]pyridin-2-yl)acetamide]			IC50 ([1]; Table 3, compounds of FIG. 2): 300 to 1000 nM; IC50 [2, 4]: > 10000 nM
CCC(C)NCCC(=O)N(C)c1sc2c(c1-c1nc3ccccc3s1)CCNC2 (stereo not shown) [Compound 301, N-(3-(benzo[d]thiazol-2-yl)-4,5,6,7-tetrahydrothieno[2,3-c]pyridin-2-yl)-3-(sec-butylamino)-N-methylpropanamide]	1000 to 10000	1000 to 10000	
CC(C)NCCC(=O)Nc1sc2c(c1-c1nc3cc(-n4ccnc4)ccc3s1)CCNC2 [Compound 178, N-(3-(5-(1H-imidazol-1-yl)benzo[d]thiazol-2-yl)-4,5,6,7-tetrahydrothieno[2,3-c]pyridin-2-yl)-3-(isopropylamino)propanamide dihydrochloride]	< 300	< 300	
COCCNCCC(=O)Nc1sc2c(c1-c1nc3c(-n4cnc(C)c4)cccc3s1)CCNC2 [Compound 592, 3-((2-Methoxyethyl)amino)-N-(3-(4-(4-methyl-1H-imidazol-1-yl)benzo[d]thiazol-2-yl)-4,5,6,7-tetrahydrothieno[2,3-c]pyridin-2-yl)propanamide trihydrochloride]	< 300	< 300	
COCCNCCC(=O)Nc1sc2c(c1-c1nc3cc4c(cc3s1)OCO4)CCNC2 [Compound 556, N-(3-([1,3]Dioxolo[4′,5′:4,5]benzo[1,2-d]thiazol-6-yl)-4,5,6,7-tetrahydrothieno[2,3-c]pyridin-2-yl)-3-((2-methoxyethyl)amino)propanamide]	< 300	< 300	
C=Cc1ccc2sc(-c3c(NC(=O)CCNC(C)C)sc4c3CCNC4)nc2c1 [Compound 321, 3-(Isopropylamino)-N-(3-(5-vinylbenzo[d]thiazol-2-yl)-4,5,6,7-tetrahydrothieno[2,3-c]pyridin-2-yl)propanamide]	300 to 1000	< 300	
COCCNCCC(=O)Nc1sc2c(c1-c1nc3c(NC4COC4)cccc3s1)CCNC2 [compound 600]	< 300	< 300	
CC(=O)Nc1sc2c(c1-c1nc3ccccc3s1)C[C@H](C)N[C@@H]2C [Compound 219, N-((5S,7R)-3-(benzo[d]thiazol-2-yl)-5,7-dimethyl-4,5,6,7-tetrahydrothieno[2,3-c]pyridin-2-yl)acetamide]			IC50 ([1]; Table 3, compounds of FIG. 2): 1000 to 10000 nM; IC50 [2, 4]: < 300 nM
CC[C@H](C)NCCC(=O)Nc1sc2c(c1-c1nc3cc(-c4ccncc4)ccc3s1)CCN(CC)C2 [Compound 588, (S)-3-(sec-butylamino)-N-(6-ethyl-3-(5-(pyridin-4-yl)benzo[d]thiazol-2-yl)-4,5,6,7-tetrahydrothieno[2,3-c]pyridin-2-yl)propanamide]	< 300	< 300	
CC(C)NCCC(=O)Nc1sc2c(c1-c1nc3ccc(C4=CCNCC4)cc3s1)CCNC2 [compound 194]	< 300	< 300	
CC[C@@H](C)NCCC(=O)Nc1sc2c(c1-c1nc3cc(F)ccc3s1)CCNC2 [Compound 185, (R)-3-(sec-butylamino)-N-(3-(5-fluorobenzo[d]thiazol-2-yl)-4,5,6,7-tetrahydrothieno[2,3-c]pyridin-2-yl)propanamide]	< 300	< 300	
CC(C)NCCC(=O)Nc1sc2c(c1-c1nc3c(-c4cnn(C)c4)cccc3s1)CCNC2 [compound 515]	< 300	< 300	
CC(C)CNCCC(=O)Nc1sc2c(c1-c1nc3ccccc3s1)CCN(C(C)C)C2 [Compound 552, N-(3-(Benzo[d]thiazol-2-yl)-6-isopropyl-4,5,6,7-tetrahydrothieno[2,3-c]pyridin-2-yl)-3-(isobutylamino)propanamide]	< 300	< 300	
COCCNCCC(=O)Nc1sc2c(c1-c1nc3ccc(C4=CCNCC4)cc3s1)CCNC2 [compound 459]	< 300	< 300	
COCCNCCC(=O)Nc1sc2c(c1-c1nc3c(Br)cccc3s1)CCNC2 [compound 559]	< 300	< 300	
CCC(C)NCCC(=O)Nc1sc2c(c1-c1nc3cc4c(cc3s1)OCO4)CCNC2 (stereo not shown) [Compound 555, N-(3-([1,3]Dioxolo[4′,5′:4,5]benzo[1,2-d]thiazol-6-yl)-4,5,6,7-tetrahydrothieno[2,3-c]pyridin-2-yl)-3-(sec-butylamino)propanamide]	< 300	< 300	IC50 [1, 5]: 1000 to 10000 nM; IC50 [2, 5]: 1000 to 10000 nM
CC[C@H](C)NCCC(=O)Nc1sc2c(c1-c1nc3cc(F)ccc3s1)CCNC2 [Compound 156, (S)-3-(sec-butylamino)-N-(3-(5-fluorobenzo[d]thiazol-2-yl)-4,5,6,7-tetrahydrothieno[2,3-c]pyridin-2-yl)propanamide hydrochloride]	< 300	< 300	
CC(=O)Nc1sc2c(c1-c1nc3ccccc3s1)C[C@@H](C)N[C@H]2C (relative stereo) [Compound 206, N-(3-(benzo[d]thiazol-2-yl)-cis-5,7-dimethyl-4,5,6,7-tetrahydrothieno[2,3-c]pyridin-2-yl)acetamide]			IC50 ([1]; Table 3, compounds of FIG. 2): 1000 to 10000 nM; IC50 ([2]; Table 3, compounds of FIG. 2): 1000 to 10000 nM
CC(=O)Nc1sc2c(c1-c1nc3ccccc3s1)CCC(N)C2 (stereo not shown) [Compound 221, N-(6-amino-3-(benzo[d]thiazol-2-yl)-4,5,6,7-tetrahydrobenzo[b]thiophen-2-yl)acetamide]			IC50 ([1]; Table 3, compounds of FIG. 2): > 10000 nM; IC50 [2, 4]: > 10000 nM
CC(C)NCCC(=O)Nc1sc2c(c1-c1nc3cc(C(=O)N(C)C)ccc3s1)CCNC2 [Compound 322, 2-(2-(3-(Isopropylamino)propanamido)-4,5,6,7-tetrahydrothieno[2,3-c]pyridin-3-yl)-N,N-dimethylbenzo[d]thiazole-5-carboxamide]	300 to 1000	< 300	
CCC(C)NCCC(=O)Nc1sc2c(c1-c1nc3cc(F)ccc3s1)CCN(C(C)C)C2 (stereo not shown) [Compound 126, 3-(sec-butylamino)-N-(3-(5-fluorobenzo[d]thiazol-2-yl)-6-isopropyl-4,5,6,7-tetrahydrothieno[2,3-c]pyridin-2-yl)propanamide]	< 300	< 300	

Second part, led by results:

IC50 ([1]; Table 2, compounds of FIG. 1) [nM]	IC50 [2, 3] [nM]	SMILES	also measured
1000 to 10000		COCCNCCC(=O)Nc1sc2c(c1-c1nc3ccc(-c4cccnc4)cc3s1)CC(C)NC2C (single isomer, unassigned) [Compound 520, N-(5,7-Dimethyl-3-(6-(pyridin-3-yl)benzo[d]thiazol-2-yl)-4,5,6,7-tetrahydrothieno[2,3-c]pyridin-2-yl)-3-((2-methoxyethyl)amino)propanamide]	IC50 ([2]; Table 2, compounds of FIG. 1): 300 to 1000 nM
300 to 1000		COCCNCCC(=O)Nc1sc2c(c1-c1nc3ccccc3s1)CC(C)NC2C (stereo not shown) [Compound 315, N-(3-(Benzo[d]thiazol-2-yl)-5,7-dimethyl-4,5,6,7-tetrahydrothieno[2,3-c]pyridin-2-yl)-3-((2-methoxyethyl)amino)propanamide]	IC50 ([2]; Table 2, compounds of FIG. 1): < 300 nM
< 300	< 300	COCCNCCC(=O)Nc1sc2c(c1-c1nc3ccc(-c4ccc(N5CCNCC5)nc4)cc3s1)CCNC2 [compound 504]	
300 to 1000	< 300	CCC1Cc2c(sc(NC(=O)CCNCCOC)c2-c2nc3ccccc3s2)C(CC)N1 (single isomer, unassigned) [Compound 536, N-(3-(Benzo[d]thiazol-2-yl)-5,7-diethyl-4,5,6,7-tetrahydrothieno[2,3-c]pyridin-2-yl)-3-((2-methoxyethyl)amino)propanamide]	
300 to 1000		COCCNCCC(=O)Nc1sc2c(c1-c1nc3ccc(-c4cccnc4)cc3s1)CC(C)NC2C (single isomer, unassigned) [Compound 528, N-(5,7-Dimethyl-3-(6-(pyridin-3-yl)benzo[d]thiazol-2-yl)-4,5,6,7-tetrahydrothieno[2,3-c]pyridin-2-yl)-3-((2-methoxyethyl)amino)propanamide]	IC50 ([2]; Table 2, compounds of FIG. 1): 300 to 1000 nM
> 10000		CC[C@H](C)NCCC(=O)Nc1sc2c(c1-c1nc3cc(C(F)(F)F)ccc3s1)CC(C)NC2C (single isomer, unassigned) [Compound 586]	IC50 ([2]; Table 2, compounds of FIG. 1): < 300 nM
< 300	< 300	COCCNCCC(=O)Nc1sc2c(c1-c1nc3cc(-c4cncc(F)c4)ccc3s1)CCNC2 [compound 337]	
< 300	< 300	CCC(C)NCCC(=O)Nc1sc2c(c1-c1nc3cc(-c4cccnc4)ccc3s1)CCNC2 (stereo not shown) [compound 150]	
< 300	300 to 1000	COCCNCCC(=O)Nc1sc2c(c1-c1nc3cc(-c4cccnc4)ccc3s1)CC(C)NC2C (single isomer, unassigned) [Compound 524, N-(5,7-Dimethyl-3-(5-(pyridin-3-yl)benzo[d]thiazol-2-yl)-4,5,6,7-tetrahydrothieno[2,3-c]pyridin-2-yl)-3-((2-methoxyethyl)amino)propanamide]	
